Where two headings read alike, the source gives them in different places.
Tests used:
Type in all cases: cell-based
HTT mRNA = assay: Splicing assay (RT-qPCR) monitoring HTT canonical junction (CJ) and alternative junction (AJ) mRNA isoforms; details: A673 or K562 cells, 24 h treatment, top dose 10 uM
How it was run: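 A673 or K562 cells treated 24 h at 37 °C with an 11-point 3-fold dilution (top 10 uM final, DMSO ≤0.25%). Lysates assayed by one-step RT-qPCR for HTT CJ and AJ isoforms, normalized to GAPDH, GUSB (K562) or PPIA (A673).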

Target C CJ mRNA = assay: Gene panel canonical junction qPCR assay, Target C; details: decrease in CJ mRNA levels, gene panel; read-out: Target C IC50
How it was run: (§1)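 A673 or K562 cells were treated for 24 h at 37 °C with an 11-point 3-fold dilution, top dose 10 uM, DMSO ≤0.25%. Canonical junction mRNA in lysates was quantified by one-step RT-qPCR and normalized to GAPDH, GUSB or PPIA.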

HTT CJ mRNA = assay: Gene panel canonical junction qPCR assay, HTT; details: decrease in CJ mRNA levels, gene panel; read-out: HTT IC50
How it was run: as §1

SMN2 CJ mRNA = assay: Gene panel canonical junction qPCR assay, SMN2; details: decrease in CJ mRNA levels, gene panel; read-out: SMN2 IC50
How it was run: as §1

[1] = decrease in CJ mRNA (50% response), read-out: HTT CJ AC50
[2] = increase in AJ mRNA (50% response), read-out: HTT AJ AC50

SMILES | AC50 (HTT mRNA; [1]) [µM] | AC50 (HTT mRNA; [2]) [µM] | IC50 (Target C CJ mRNA) [µM] | IC50 (HTT CJ mRNA) [µM] | IC50 (SMN2 CJ mRNA) [µM]
Cc1cn2nc(-c3ccc4c(=O)n([C@H]5CCN(C)[C@H](C)C5)ncc4c3)cc(C)c2n1 [Compound 278] | < 0.1 | < 0.1 | 0.1 to 1 | < 0.1 | < 0.1
Cc1cc(-c2ccc3c(=O)n(C4CC(C)(C)NC(C)(C)C4)cnc3n2)cc2cn(C)nc12 [Compound 179] | > 10 | > 10 | > 10 | > 10 | 1 to 10
Cn1cc2cc(-n3cnc4cc(C5=CC6CCC(C5)N6)ccc4c3=O)ccc2n1 (centres unmarked) [Compound 160, 7-(8-azabicyclo[3.2.1]oct-2-en-3-yl)-3-(2-methyl-2H-indazol-5-yl)quinazolin-4(3H)-one] | > 10 | > 10 | > 10 | > 10 | > 10
CN1CCN(c2ccc3c(=O)n(-c4ccc5nn(C)cc5c4)cnc3c2)CC1 [Compound 152, 3-(2-methyl-2H-indazol-5-yl)-7-(4-methylpiperazin-1-yl)quinazolin-4(3H)-one] | > 10 | > 10 | > 10 | > 10 | > 10
Cc1cn2cc(-c3ccc4c(c3)CCN(C3CCNCC3)C4=O)c(C)cc2n1 [Compound 218] | 1 to 10 | 1 to 10 | 1 to 10 | 1 to 10 | 1 to 10
Cc1cc(-c2ccc3c(=O)n(C4CCNCC4)cnc3c2F)cc2cn(C)nc12 [Compound 234, 7-(2,7-dimethyl-2H-indazol-5-yl)-8-fluoro-3-(piperidin-4-yl)quinazolin-4(3H)-one] | 1 to 10 | 1 to 10 | > 10 | 1 to 10 | < 0.1
Cc1cn2nc(-c3ccc4c(=O)n(C5CCN(C)CC5)cnc4c3)nc2c(C)n1 [Compound 288, 7-{6,8-dimethyl-[1,2,4]triazolo[1,5-a]pyrazin-2-yl}-3-(1-methylpiperidin-4-yl)quinazolin-4-one] | 1 to 10 | 1 to 10 | 1 to 10 | 1 to 10 | 1 to 10
Cc1cn2cc(-c3ccc4c(=O)n(C5CCNCC5)ncc4c3)cc(F)c2n1 [Compound 248, 6-[8-fluoro-2-methylimidazo[1,2-a]pyridin-6-yl]-2-(piperidin-4-yl)phthalazin-1-one] | < 0.1 | 0.1 to 1 | 0.1 to 1 | < 0.1 | < 0.1
Cc1cc(-c2ccc3c(=O)n(C4CCNCC4)ncc3c2)cc2cn(C)nc12 [Compound 251] | 0.1 to 1 | 0.1 to 1 | 0.1 to 1 | 0.1 to 1 | < 0.1
Cc1cn2cc(-c3ccc4c(=O)n(C5CCN(C)CC5)cnc4c3)c(C)cc2n1 [Compound 246] | 1 to 10 | 1 to 10 | 1 to 10 | 1 to 10 | 1 to 10
